US9629822B2, “Flavonoid based antiviral targets” (UNIVERSITY OF CENTRAL FLORIDA RESEARCH FOUNDATION, INC., priority 2012, dated 2017)
“Also recorded” adds a separate entry of the source. Read-outs that look alike come from different tables or passages of the source.

Columns and labels:
CHO cells = experiment: CHO cell toxicity, MTS assay, 48 h; assay type: cell-based, Chinese hamster; details: 37° C., MTS reagent; for IC50: Cricetulus griseus, CHO, read-out: CHO 48 h IC50 value
Experimental: In each case, the chalcone system 8 was more toxic than the corresponding ring-closed system, 9.
The CHO assay was conducted to assess the general toxicity of each flavonoid drug. Briefly, cell growth was assayed in sterile 96-well microtiter plates (Costar 3599, Corning, N.Y., USA) in the presence of each drug. Experiments were conducted in triplicate. CHO cells were plated at 10,000 cells/mL. Drug solutions were prepared in 100% DMSO and dosed so that the final DMSO concentration was <1%. For example, 1 μL of drug solution was added to the CHO cells plated in each well in 100 μL of media. Drug additions occurred after an initial overnight incubation of CHO cells in each well. After drug was added, the cells were incubated in 5% CO2 for 48 h at 37° C. The MTS reagent (Promega Cell Titer 96 Aqueous non-radioactive cell proliferation reagent) was added (20 μL) and the CHO cells were incubated for an additional 4h and then absorbance at 490 nm was measured on a BioTek Synergy MX plate reader. […] IC50 values were determined from the corresponding plot of relative absorbance at 490 nm vs drug concentration.

[1] = tested on: mock transfected 293T HEK cells; experiment: PathDetect Elk1 luminescence in mock transfected (empty pcDNA3 vector) 293T HEK cells, off-target effect; assay type: cell-based, human; details: for activation at 10 µM: Homo sapiens, read-out: Effect(%) on mock cells with each drug at 10 μM
Experimental: As a control, the empty pcDNA3 plasmid vector and the components of PathDetect system were also used for mock transfection of 293T HEK cells. Controls containing 1% DMSO were run in parallel. The relative luminescence results found with mock transfected 293T HEK cells treated with 10 μM drug and the untreated 1% DMSO control were compared via the following Equation 1. % Effect on mock cells=(100%×(mock cell luminescence/DMSO control luminescence))−100% Equation (1)
This equation was derived in order to assess the net effect each compound had on non-US28 containing HEK cells transfected via the same protocol. These control experiments were critical as they provided a method to address off target effects such as compound toxicity, which could give rise to false positives in the PathDetect assay.
Compounds, which had no off-target effects, gave nearly identical luminescence values in both the mock cells and the 1% DMSO control (i.e., a mock cell luminescence/DMSO control luminescence ratio of 1) and a net effect of 0% via Equation 1 (e.g., 9j: 0% in Table 1). In contrast, compounds that were stimulatory to the treated HEK cells gave higher mock cell luminescence than the DMSO control, a ratio >1, and a net positive value in Equation 1 for the % effect on mock cells (e.g., 8f: 290%). On the other hand, compounds that were intrinsically toxic gave lower luminescence in the treated mock cells than the DMSO control, a ratio below 1, and a net negative value for the % effect on mock cells (e.g., 8d: ˜42%).
(§1) The efficacy of each compound on the US28 receptor was investigated in luciferase based reporter gene assay PathDetect trans Elk1 (Agilent, Stratagene)^23 as described previously.^13 Briefly, the human embryonic kidney (HEK) 293T cells were transiently-transfected with 0.1 μg Elk1, 5 μg Luc, and 5 μg of US28 vector or empty pcDNA3 vector (mock cells). Five hours after transfection, the cells were washed with DMEM containing 1% FBS, harvested, seeded in a white half-area 96-well plate (20,000 cells/well) and incubated with the indicated concentrations of test compounds. The incubation buffer consisted of DMEM, 1% FBS, 2 mM L-glutamine, 1% penicillin-streptomycin and 1% DMSO. The cells were incubated at 37° C. in the humid atmosphere with 5% CO2 for an additional 20-24 hours. The luciferase substrate BrightGlo (Promega) was used according to the manufacturer's instruction. The luminescence intensity was acquired using microplate reader Victor3V (Perkin-Elmer). The basal luminescence of mock transfected cells was approximately 500 RLU and the basal luminescence of US28-transfected cells was 4-5-fold higher (2000-2500 RLU). As the inhibitors gave differential responses in terms of their ability to reduce US 28 mediated signaling, their relative EC50 values were determined by dosing the US-28 transfected HEK cells with increasing concentrations of each compound. In this case, the EC50 value is the concentration of the compound needed to provoke a response halfway between the compound's maximal response (change in luminescence) and the no-compound control in the same US-28 transfected cell line. A plot of relative luminescence versus log of the compound concentration provided a dose-response curve from which the % efficacy was derived via non-linear regression methods using the algorithms in PRISM 5.0 (GraphPad Software, San Diego, Calif.).

[2] = TZMbI assay for cell safety (cell viability and growth, CytoTox Glo); details: human, TZMbI cells, read-out: % decrease in viability compared to 0.1% DMSO vehicle based on viable cell luminescence
Experimental: Assays were performed below in accordance with the procedures set forth in The Journal of Immunology, 2006, 176, pp. 6900-905; AIDS Research and Human Retroviruses, 2004, 20:11, pp. 1157-1665.^32,33 TZMbI assays for cell safety were performed to identify potential anti-viral compounds. TZMbI assays for cell safety were performed to identify potential anti-viral compounds per the methods.

US28 receptor = molecular target: T1, US28 receptor (Human cytomegalovirus, UniProt P69332); experiment: PathDetect trans Elk1 luciferase reporter gene assay in US28-transfected 293T HEK cells; assay type: cell-based, Human Cytomegalovirus (HCMV); details: for type of activity on the US28 receptor (agonist / inverse agonist / none), in words: Elk1 reporter, US28-transfected HEK cells; for Efficacy(%): maximum intrinsic activity from dose-response curve; for Efficacy(%) / Emax: negative = inverse agonism; for Emax: read-out: Efficacy(%), maximum intrinsic activity from dose-response curve
T1 construct: expressed in transfected cells; host or cells: HEK 293T cells, transiently transfected
T1 sequence (P69332 whole entry): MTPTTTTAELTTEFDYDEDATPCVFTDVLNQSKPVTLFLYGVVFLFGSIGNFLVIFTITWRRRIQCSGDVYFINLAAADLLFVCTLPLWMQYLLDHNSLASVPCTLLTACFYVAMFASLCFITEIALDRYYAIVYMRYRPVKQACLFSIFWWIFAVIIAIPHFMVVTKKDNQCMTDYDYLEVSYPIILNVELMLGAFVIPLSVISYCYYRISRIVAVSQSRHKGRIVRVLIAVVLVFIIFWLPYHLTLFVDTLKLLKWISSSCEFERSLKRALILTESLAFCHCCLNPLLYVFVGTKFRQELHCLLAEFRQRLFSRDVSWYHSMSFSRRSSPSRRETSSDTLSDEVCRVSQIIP
Excerpt: Having generated a homologous series of chalcones and flavones, their ability to interact with the US28 receptor in human embryonic kidney (HEK) cells was investigated using an Elk-1 gene reporter assay (FIG. 2). HEK cells were transfected with either an empty vector (i.e., mock cells) or with a vector carrying US 28. These matched HEK cells provided a means to evaluate off-target effects as well as innate drug toxicity. As many of the flavonoid drugs were not water-soluble, all drug stock solutions were made in 100% dimethylsulfoxide (DMSO). The final DMSO concentration for each cell-based experiment, however, was 1% DMSO. To account for the presence of DMSO, 1% DMSO controls were run in parallel. […] values of the homologous series were also determined in Chinese hamster ovary (CHO) cells in order to assess the relative toxicities of each member of the series in a different cell line (see Table 1).
Interaction with the US28 receptor was measured by a decrease in luminescence using a firefly (Photinus pyralis) luciferase-based PathDetect Elk1 gene reporter assay (FIG. 2).^23,24 This assay assessed the modulation of US28-mediated activation of mitogen-activated protein kinase (MAPK) signaling pathways (results are shown in Table 1). […] Such compounds which reduce MAPK signaling will have direct utility in the treatment of proliferative disorders including but not limited cancer.
After transfection the US28 is expressed and activates MAPK. The MAPK phosphorylates the activator domain of the GAL4dbd/Elk1 fusion protein, and causes its dimerization. The dimer then binds to the GAL4 UAS region of the reporter gene and allows for luciferase transcription. The luciferase mRNA is then translated and the luciferase protein is detected via luminescence by the use of the Bright-Glo reagent.
as §1

HIV-1 BaL = experiment: Anti-HIV assay (luciferase, HIV-1 BaL infection); assay type: cell-based
Experimental: Assays were performed below in accordance with the procedures set forth in The Journal of Immunology, 2006, 176, pp. 6900-905; AIDS Research and Human Retroviruses, 2004, 20:11, pp. 1157-1665.^32,33 Cells were treated with 2 ng/mL p24 of HIV-1 BaL administered; MOI approx 0.02 (see refs 32, 33). Cells were treated with 2 ng/mL p24 of HIV-1 BaL administered; MOI approx 0.02 (see refs 32, 33).

[3] = 10 μM vs 1% DMSO control, Equation 1
[4] = pEC50 ± SEM, 293T HEK cells transiently expressing US28, Elk1 reporter
[5] = 10 μM, Experiment 1B, 2 ng/mL p24 HIV-1 BaL
[6] = Human immunodeficiency virus 1, BAL, 10 μM, Experiment 1B, 2 ng/mL p24 HIV-1 BaL
[7] = EC50 (μM), 293T HEK cells transiently expressing US28, Elk1 reporter, NE = no effect when tested at 10 μM of compound

COc1ccccc1/C=C/C(=O)c1ccccc1O [Compound 8a, (E)-1-(2-Hydroxyphenyl)-3-(2-methoxyphenyl)prop-2-en-1-one]
IC50 (CHO cells): 25.5 ± 2.7 µM | activation at 10 µM [1, 3]: 8% | cytotoxicity at 10 μM ([2]; Experiment 1A): 18.7% | type of activity on the US28 receptor (agonist / inverse agonist / none), in words (US28 receptor): agonism; also recorded: agonist activity | Efficacy(%) (US28 receptor): 67% | EC50 (US28 receptor; [4]): 1.45 µM | Emax (US28 receptor): 67% | RLU (relative luciferase units) (HIV-1 BaL; [5]): 1218.5 RLU | inhibition at 10 µM (HIV-1 BaL; [6]): -28.8%

COc1ccc(Br)cc1/C=C/C(=O)c1ccccc1O [Compound 8b, (E)-3-(5-Bromo-2-methoxyphenyl)-1-(2-hydroxyphenyl)prop-2-en-1-one]
IC50 (CHO cells): 8.7 ± 0.3 µM | cytotoxicity at 10 μM ([2]; Experiment 1A): 64.2% | EC50 (US28 receptor; [7]): 7.8 µM | Efficacy(%) (US28 receptor): ~44% | Emax (US28 receptor): ~44% | RLU (relative luciferase units) (HIV-1 BaL; [5]): 202.3 RLU | inhibition at 10 µM (HIV-1 BaL; [6]): 78.6%

CCOc1ccc(Br)cc1/C=C/C(=O)c1ccccc1O [Compound 8c, (E)-3-(5-bromo-2-ethoxyphenyl)-1-(2-hydroxyphenyl)prop-2-en-1-one]
IC50 (CHO cells): 7.2 ± 0.5 µM | activation at 10 µM [1, 3]: -3% | cytotoxicity at 10 μM ([2]; Experiment 1A): 53.3% | EC50 (US28 receptor; [7]): 5 µM | Emax (US28 receptor): ~88% | RLU (relative luciferase units) (HIV-1 BaL; [5]): 112.3 RLU | inhibition at 10 µM (HIV-1 BaL; [6]): 88.1%

COc1ccccc1/C=C/C(=O)c1c(O)cccc1OCc1ccccc1 [Compound 8k, (E)-1-(2-(Benzyloxy)-6-hydroxyphenyl)-3-(2-methoxyphenyl)prop-2-en-1-one]
toxicity at 10 μM in HEK cells, in words ([1]; 10 μM): very toxic | Effect(%) on mock cells with each drug at 10 μM [1, 3]: Toxic | EC50 (μM) (US28 receptor; 293T HEK cells transiently expressing US28, Elk1 reporter, NE = no effect when tested at 10 μM of compound): Toxic

COc1ccccc1-c1cc(=O)c2c(OCc3ccccc3)cccc2o1 [Compound 11a, 5-(Benzyloxy)-2-(2-methoxyphenyl)-4H-chromen-4-one]
IC50 (CHO cells): 17.5 ± 1.9 µM | EC50 (US28 receptor; [7]): 7.3 µM

COc1ccc(Br)cc1-c1cc(=O)c2c(OCc3ccccc3)cccc2o1 [Compound 11b, 5-(Benzyloxy)-2-(5-bromo-2-methoxyphenyl)-4H-chromen-4-one]
CHO 48 h IC50 value (μM) (CHO cells): high CHO IC50 value; also recorded: essentially non-toxic; also recorded: not toxic | IC50 (CHO cells): 96.6 µM | cytotoxicity at 5 μM ([2]; 5 μM, Experiment 2A): -6.17% | cytotoxicity at 10 μM ([2]; Experiment 1A): 6.4% | cytotoxicity at 10 μM ([2]; Experiment 2A): -5.05% | cytotoxicity at 20 μM ([2]; 20 μM, Experiment 2A): -18.1% | cytotoxicity at 40 μM ([2]; 40 μM, Experiment 2A): -29.2% | cytotoxicity at 80 μM ([2]; 80 μM, Experiment 2A): -1.51% | type of activity on the US28 receptor (agonist / inverse agonist / none), in words (US28 receptor): strong inverse agonism activity; also recorded: full inverse agonist | Efficacy(%) (US28 receptor): −89% | EC50 (US28 receptor; [4]): 3.47 µM | Emax (US28 receptor): -89% | RLU (relative luciferase units) (HIV-1 BaL; 5 μM, Experiment 2B): 24.27 RLU | RLU (relative luciferase units) (HIV-1 BaL; [5]): 781.6 RLU | RLU (relative luciferase units) (HIV-1 BaL; 10 μM, Experiment 2B): 34.09 RLU | RLU (relative luciferase units) (HIV-1 BaL; 20 μM, Experiment 2B): 40.47 RLU | RLU (relative luciferase units) (HIV-1 BaL; 40 μM, Experiment 2B): 49.22 RLU | RLU (relative luciferase units) (HIV-1 BaL; 80 μM, Experiment 2B): 62.68 RLU | inhibition at 5 µM (HIV-1 BaL; Human immunodeficiency virus 1, BAL, 5 μM, Experiment 2B): -6.17% | inhibition at 10 µM (HIV-1 BaL; [6]): 16.5% | inhibition at 10 µM (HIV-1 BaL; Human immunodeficiency virus 1, BAL, 10 μM, Experiment 2B): -15.1% | inhibition at 20 µM (HIV-1 BaL; Human immunodeficiency virus 1, BAL, 20 μM, Experiment 2B): -18.1% | inhibition at 40 µM (HIV-1 BaL; Human immunodeficiency virus 1, BAL, 40 μM, Experiment 2B): -29.2% | inhibition at 80 µM (HIV-1 BaL; Human immunodeficiency virus 1, BAL, 80 μM, Experiment 2B): -1.51%

CC[C@H](C)[C@@H]1NC(=O)CNC(=O)[C@H](CCCCN)NC(=O)CNC(=O)[C@@H]2CSSC[C@H](NC1=O)C(=O)N[C@@H](CCCNC(=N)N)C(=O)N[C@H]1CSSC[C@H](NC(=O)[C@H](CCCNC(=N)N)NC(=O)[C@@H]3CSSC[C@H](NC(=O)[C@H]([C@@H](C)CC)NC1=O)C(=O)NCC(=O)N[C@@H](CCCNC(=N)N)C(=O)NCC(=O)N[C@@H]([C@@H](C)CC)C(=O)N3)C(=O)N[C@@H]([C@@H](C)CC)C(=O)N2 [RC-101, reference compound]
cytotoxicity at 10 μM ([2]; Experiment 2A): -1.43% | Mean % Inhibition of Infection (HIV-1 BaL; 10 μM, Experiment 2B): 99.38% | RLU (relative luciferase units) (HIV-1 BaL; 10 μM, Experiment 2B): 1.67 RLU
